Assay results taken from patent publication US6512007B1, “Use of galiella lactone” (Bayer Aktiengesellschaft, priority 2000, dated 2003).
pIC50: −log10 of the molar value.

Columns and labels:
[1] = tested on: primary neurons of the rat cerebellum; test: NMDA-mediated calcium influx into primary neurons after chronic IL-6 treatment; type: cell-based
Procedure: Cultures of primary neurons were obtained from the cerebella of rats 6 to 8 days old as described by B. Engelsen and R. Bjerkvig [in R. I. Freshney (Editor) Culture of Animal Cells, 2nd Edition, Alan R. Liss, Inc. New York 1987, 277-279]. After removal of the tissue, single cells were obtained using papain and were seeded out in a density of 200 00 cells per well in microtitre plates (96 wells) coated with poly-D-lysine. The cells were cultivated in a growth medium consisting of DMEM/F12, 10% heat-inactivated horse serum. 25 mM KCl, 30 mM glucose, 2 mM glutamine. In order to minimize the number of glial cells, 5-fluoro-2′-deoxyuridine (20 μg/ml) was added on the first and fourth day in culture. The cultures obtained in this way consisted of more than 95% neurons.
Human recombinant interluekin-6 (IL-6) was dissolved in physiological salt solution (Hank's balanced salt solution) and added to neuron cultures on days, 1, 4, 7 and 11 after the start of culturing (final) concentration 5 ng/ml). […]
12 days after the start of culturing, the N-methyl-D-asparate (NMDA)-induced changes in the intracellular calcium level were measured using a fluorescence plate reader (Ascent Fluoroscan). […] The cells were stimulated by adding NMDA (final concentration 200 μM) in the presence of glycine (final concentration 5 μM), and the fluroescence was measured at 15-second intervals over a period of one minute (excitation 485 nm. emission 530 nm). Intracellular calcium concentrations were calculated by the formula [Ca^2]i=Kd.
The arithmetic means was formed from the intracellular calcium concentrations found at all four times of measurement, and the percentage change from the unstimulated controls (basa) calcium concentration) was calculated.
Inhibition of the potentiation, induced chronic IL-6 administration, of the NMDA-mediated calcium influx into primary neurons of the rat cerebellum by galiella lactone. […] The average calcium concentration during the one-minute measurement period was calculated and expressed as a per cent of the basal intracellular calcium concentration. […]

[2] = tested on: 6-hydroxydopamine lesion of the substantia nigra; test: 6-Hydroxydopamine (6-OH-DA) lesion in the rat, staircase test (forepaw coordination); type: in vivo; conditions: bid, i.p.
[3] = tested on: SW 480; test: Growth inhibition test (MTT), cytotoxic properties on tumour cell lines; type: cell-based; conditions: Homo sapiens, 144 h; SW480, MTT, day 6; read-out: cytotoxic effect IC50
Procedure: (§1) The human colon cell lines SW 480 and HT 29 (ATCC Nos. CCL 228 and HBT-38), the mouse melanoma cell line B16F10 and the human prostate tumour cell lines LNCaP-FGC, PC-3 and DU 145 (ATCC No. CRL-10995, CRL-1435, HTB-81) were grown in RPMI 1640 medium with addition of 10% FCS in Roux dishes. This was followed by trypsinization and taking up in RPMI plus 10% FCS to a cell count of 50 000 cell/ml. 100 μl of cell suspension/well were put in a 96-microwell plate and incubated in a CO2 incubator at 37° C. for 1 day. A further 100 μl of RPMI medium and 1 μl of DMSO with galiella lactone were then added. The growth was monitored after day 6. For this purpose, 40 μl of MTT solution (3-(4,5-dimethylthiazol-2-yl)-2,5-diphenyltetrazolium bromide) with an initial concentration of 5 mg/ml of H2O were added to each microwell. Incubation took place in a CO2 incubator at 37° C. for 5 hours. The medium was then separated off, and 100 μl of i-propanol/well were added. After shaking with 100 μl of H2 O for 30 min, the extinction at 540 nm was measured with a Titertek Multiscan MCC/340 (flow).
(§2) The cytotoxic effect is indicated in the table as IC50 (galiella lactone concentration in μM) for the various tumour cell lines: […]

[4] = tested on: LNCaP-FGC; test: as above; type: cell-based; conditions: Homo sapiens, 144 h, day 6, read-out: cytotoxic effect IC50
Procedure: as §1, §2

[5] = tested on: PC-3; test: as above; type: cell-based; conditions: Homo sapiens, 144 h; PC-3, MTT, day 6; read-out: cytotoxic effect IC50
Procedure: as §1, §2

[6] = tested on: B16F10; test: as above; type: cell-based; conditions: Mus musculus, B16-F10, 144 h, day 6, read-out: cytotoxic effect IC50
Procedure: as §1, §2

[7] = tested on: HT 29; test: as above; type: cell-based; conditions: Homo sapiens, HT-29, 144 h; HAT29, MTT, day 6; read-out: cytotoxic effect IC50
Procedure: as §1, §2

[8] = tested on: DU 145; test: as above; type: cell-based; conditions: Homo sapiens, DU-145, 144 h; DU145, MTT, day 6; read-out: cytotoxic effect IC50
Procedure: as §1, §2

SMILES: C[C@H]1C=C2C(=O)O[C@H]3CC[C@@H](C1)[C@@]23O [galiella lactone]
- IL-6-induced enhancement of the NMDA-mediated calcium influx ([1]; 1 μM before each IL-6 addition (5 ng/ml), NMDA 200 μM): completely prevented
- NMDA-induced increase in average intracellular calcium concentration ([1]; chronic administration 1 μM, NMDA 200 μM, without IL-6): somewhat reduced
- effect on the basal calcium level ([1]; chronic treatment, 1 μM, no NMDA): no effect
- fine motor control of the forepaws (staircase test) ([2]; 1.0 mg/kg): improved
- fine motor control of the forepaws (staircase test) ([2]; 3.0 mg/kg): improved
- pIC50 [3]: 5.30
- pIC50 [4]: 5.70
- pIC50 [5]: 5.40
- pIC50 [6]: 5.52
- pIC50 [7]: 5.30
- pIC50 [8]: 5.35
